# Patent US20190133518A1, “METHODS AND SYSTEMS FOR DETERMINING DIURETIC RESPONSE PROFILES” (PACESETTER, INC., priority 2017, published 2019)
# System: patient
# Test: Mean PAP measurements of a patient before and after taking medication (Example 1, medication modification)
# Type: in vivo
# Description: In accordance with the present disclosure, an exemplary embodiment is as follows. A patient implanted with CARDIOMEMS, instead of simply providing a single reading each day, provides a reading twice a week (or daily) via the following protocol: First, the patient wakes up in the morning and takes a PAP reading (prior to any medication ingestion). Immediately thereafter, the patient takes all medications, which include HF medications including diuretic(s). A timer goes off in the bed-side monitor (patient home electronics unit), and about sixty minutes later, the patient takes another PAP recording. As noted elsewhere throughout this disclosure, the timing between readings is variable.
# The protocol based recordings are marked with a unique identifier and transmitted to a database (e.g., Merlin.net database). The protocol based PAP recordings are then used to determine the diuretic response profile of the patient. Specifically, the response profile is determined using PAP measurement data-points at time […] (pre medication) and time (t2) (“x” minutes after medication) and the time constant of the specific diuretic via, for example, a polynomial regression fit. For example, the time constant of furosemide is shorter than the longer acting thiazide diuretic.
# This example examined the characterization/determination of medication dosage and temporal response in a patient given different kinds of medication. […] The mean PAP measurement of the patient at time (t1) was about 35 mmHg. […].
compound,measurement,setting,value
NS(=O)(=O)c1cc(C(=O)O)c(NCc2ccco2)cc1Cl [furosemide],average PAP measurement at time (t2),"week 1, 80 mg furosemide, about 1 hour after medication (FIG. 6A)",about 19 mmHg
same,mean PAP measurement at time (t3),"week 1, 80 mg furosemide, about 2 hours after medication (FIG. 6A)",about 21 mmHg
same,mean PAP measurement at time (t1),"week 1, 80 mg furosemide, t1 prior to medication (FIG. 6A)",about 35 mmHg
same,mean PAP measurements at time (t2) and time (t3) compared with week 1,"week 2, 80 mg furosemide (FIG. 6B)",similar
same,mean PAP measurement after medication,"week 2, 80 mg furosemide, after medication (FIG. 6B)",about 19 mmHg
same,mean PAP measurement at time (t1),"week 2, 80 mg furosemide, t1 prior to medication (FIG. 6B)",about 31 mmHg
same,diuretic profile in the patient,"week 10, 80 mg furosemide (FIG. 6C)",early signs of developing diuretic resistance
same,mean PAP measurement at time (t1),"week 10, 80 mg furosemide, prior to ingestion of the medication (FIG. 6C)",about 31 mmHg
same,mean PAP measurement after medication,"week 10, 80 mg furosemide, time (t2) and time (t3) (FIG. 6C)",about 27 mmHg
